Assay results taken from US20030153539A1, “Method to potentiate the therapeutic efficacy of taxane and derivatives thereof” (priority 2000, published 2003).

Experiments:
CYP1A2 = target: T1, CYP1A2 (Homo sapiens, UniProt P05177); assay: In vitro inhibition of cDNA expressed human CYP1A2 (chlorzoxazone substrate, radio-HPLC); settings: mean of n=3
T1 sequence (P05177 1-516): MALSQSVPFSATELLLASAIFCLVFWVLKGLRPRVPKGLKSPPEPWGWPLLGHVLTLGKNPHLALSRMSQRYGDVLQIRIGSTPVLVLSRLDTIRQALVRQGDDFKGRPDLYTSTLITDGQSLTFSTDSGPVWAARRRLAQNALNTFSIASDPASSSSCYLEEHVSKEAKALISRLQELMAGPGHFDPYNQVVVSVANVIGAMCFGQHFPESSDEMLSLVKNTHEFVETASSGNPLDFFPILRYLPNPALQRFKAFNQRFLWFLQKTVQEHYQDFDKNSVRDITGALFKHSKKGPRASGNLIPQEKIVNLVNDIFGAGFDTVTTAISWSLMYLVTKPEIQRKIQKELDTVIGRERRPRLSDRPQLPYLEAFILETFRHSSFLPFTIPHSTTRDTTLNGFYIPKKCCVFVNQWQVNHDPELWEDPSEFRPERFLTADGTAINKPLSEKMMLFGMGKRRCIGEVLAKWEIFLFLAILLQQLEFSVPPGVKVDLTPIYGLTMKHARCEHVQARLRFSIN
Protocol: (§1) All incubations were conducted in triplicate.
(§2) See table 2 for HPLC mobile phase conditions.

CYP2C9 = CYP2C9 (Homo sapiens, UniProt P11712); assay: In vitro inhibition of cDNA expressed human CYP2C9 (diclofenac substrate, radio-HPLC); settings: mean of n=3
CYP2C9, sequence (P11712 whole entry): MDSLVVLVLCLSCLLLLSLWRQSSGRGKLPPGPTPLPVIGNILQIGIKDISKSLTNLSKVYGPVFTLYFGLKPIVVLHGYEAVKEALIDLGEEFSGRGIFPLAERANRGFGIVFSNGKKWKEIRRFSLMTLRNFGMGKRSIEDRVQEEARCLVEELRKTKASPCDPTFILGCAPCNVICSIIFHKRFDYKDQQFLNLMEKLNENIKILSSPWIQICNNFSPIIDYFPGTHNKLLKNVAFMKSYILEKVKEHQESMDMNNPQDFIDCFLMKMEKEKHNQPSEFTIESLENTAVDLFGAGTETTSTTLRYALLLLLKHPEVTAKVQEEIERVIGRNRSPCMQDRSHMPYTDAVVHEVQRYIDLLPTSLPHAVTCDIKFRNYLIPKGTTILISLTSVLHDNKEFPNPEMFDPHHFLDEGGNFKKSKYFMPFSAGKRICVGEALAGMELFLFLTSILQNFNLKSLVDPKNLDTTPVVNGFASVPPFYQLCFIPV
Protocol: as §1, §2

CYP2C19 = CYP2C19 (Homo sapiens, UniProt P33261); assay: In vitro inhibition of cDNA expressed human CYP2C19 ((S)-mephenytoin substrate, radio-HPLC); settings: control 100%, mean of n=3
CYP2C19, sequence (P33261 whole entry): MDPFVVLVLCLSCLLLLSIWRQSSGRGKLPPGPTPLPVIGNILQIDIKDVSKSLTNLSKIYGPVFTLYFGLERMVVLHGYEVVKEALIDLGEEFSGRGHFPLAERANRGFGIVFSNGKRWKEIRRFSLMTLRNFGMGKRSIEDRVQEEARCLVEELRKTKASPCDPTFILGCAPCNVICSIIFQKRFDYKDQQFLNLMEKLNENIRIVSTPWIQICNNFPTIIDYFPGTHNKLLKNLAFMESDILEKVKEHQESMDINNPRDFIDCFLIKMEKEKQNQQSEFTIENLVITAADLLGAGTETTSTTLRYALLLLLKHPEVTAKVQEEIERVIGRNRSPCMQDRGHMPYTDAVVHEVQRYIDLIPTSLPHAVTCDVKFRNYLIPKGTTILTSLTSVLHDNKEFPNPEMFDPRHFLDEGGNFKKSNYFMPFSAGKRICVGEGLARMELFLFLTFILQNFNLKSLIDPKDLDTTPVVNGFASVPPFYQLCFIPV
Protocol: as §1, §2

CYP2D6 = CYP2D6 (Homo sapiens, UniProt P10635); assay: In vitro inhibition of cDNA expressed human CYP2D6 (delavirdine substrate, radio-HPLC); settings: mean of n=3
CYP2D6, sequence (P10635 whole entry): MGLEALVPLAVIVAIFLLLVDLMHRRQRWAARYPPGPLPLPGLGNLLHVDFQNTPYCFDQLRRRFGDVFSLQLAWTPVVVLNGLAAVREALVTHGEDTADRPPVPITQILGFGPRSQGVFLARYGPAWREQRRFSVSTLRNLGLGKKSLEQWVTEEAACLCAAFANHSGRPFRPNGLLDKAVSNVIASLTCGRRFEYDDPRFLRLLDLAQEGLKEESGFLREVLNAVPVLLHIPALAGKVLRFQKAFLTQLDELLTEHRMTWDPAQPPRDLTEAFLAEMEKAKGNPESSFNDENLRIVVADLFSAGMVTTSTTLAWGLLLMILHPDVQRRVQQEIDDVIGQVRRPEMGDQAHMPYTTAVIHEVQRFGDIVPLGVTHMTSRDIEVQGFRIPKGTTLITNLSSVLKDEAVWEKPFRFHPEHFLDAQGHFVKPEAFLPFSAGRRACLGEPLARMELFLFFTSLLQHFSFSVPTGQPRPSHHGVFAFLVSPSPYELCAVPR
Protocol: as §1, §2

CYP3A4 = CYP3A4 (Homo sapiens, UniProt P08684); assay: In vitro inhibition of cDNA expressed human CYP3A4 (testosterone substrate, radio-HPLC); settings: for percentage of activity remaining in the presence of the compound: mean of n=3
CYP3A4, sequence (P08684 whole entry): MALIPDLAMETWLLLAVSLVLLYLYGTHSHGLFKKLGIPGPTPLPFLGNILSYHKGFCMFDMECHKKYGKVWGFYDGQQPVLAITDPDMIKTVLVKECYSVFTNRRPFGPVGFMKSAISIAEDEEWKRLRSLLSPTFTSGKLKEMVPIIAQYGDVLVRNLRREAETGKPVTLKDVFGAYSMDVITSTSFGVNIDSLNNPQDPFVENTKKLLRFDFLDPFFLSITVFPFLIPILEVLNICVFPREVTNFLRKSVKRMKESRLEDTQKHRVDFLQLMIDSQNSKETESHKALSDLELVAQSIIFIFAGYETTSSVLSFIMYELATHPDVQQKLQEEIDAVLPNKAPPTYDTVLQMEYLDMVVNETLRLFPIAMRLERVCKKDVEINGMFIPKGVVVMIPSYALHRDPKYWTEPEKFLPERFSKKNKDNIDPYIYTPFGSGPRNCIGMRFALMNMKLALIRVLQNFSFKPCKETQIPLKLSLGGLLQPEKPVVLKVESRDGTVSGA
Protocol: as §1, §2

CYP2C8 = target: T2, CYP2C8 (Homo sapiens, UniProt P10632); assay: Inhibition of CYP2C8 mediated 6α-hydroxylation of paclitaxel (human CYP2C8 cDNA expressed microsomes, HPLC-UV); assay type: biochemical; settings: 20 μM paclitaxel
T2 construct: purchased Gentest (Woburn, Mass., USA)
T2 sequence (P10632 1-490): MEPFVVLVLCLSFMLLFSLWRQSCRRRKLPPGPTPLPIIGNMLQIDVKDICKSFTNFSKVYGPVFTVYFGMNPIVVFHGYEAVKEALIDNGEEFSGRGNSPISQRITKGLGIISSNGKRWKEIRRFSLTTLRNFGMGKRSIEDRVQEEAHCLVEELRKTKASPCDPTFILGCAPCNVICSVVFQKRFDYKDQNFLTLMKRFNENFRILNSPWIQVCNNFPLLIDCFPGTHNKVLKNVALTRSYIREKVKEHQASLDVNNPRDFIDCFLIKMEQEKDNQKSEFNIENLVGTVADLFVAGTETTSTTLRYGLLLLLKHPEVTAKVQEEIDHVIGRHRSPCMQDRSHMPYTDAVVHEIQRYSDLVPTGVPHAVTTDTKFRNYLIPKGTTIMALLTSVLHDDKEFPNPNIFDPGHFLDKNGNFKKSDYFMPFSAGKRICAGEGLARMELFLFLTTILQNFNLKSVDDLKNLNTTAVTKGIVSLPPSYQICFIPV
Protocol: A 100 μl reaction mixture containing 4 pmol CYP2C8, […] paclitaxel (5 mM paclitaxel stock in ethanol) and NADPH (2 mM) in 50 mM potassium phosphate buffer (pH 7.4) was incubated at 37° C. for 40 min in the absence (solvent only) and presence of either 100 μM estramustine or estromustine.
Estramustine and estromustine were dissolved in DMSO:CH3CN (1:1). The reaction was stopped by addition of 50 μl CH3CN followed by an additional 50 μl of mobile phase. […] All incubations were conducted in triplicate.
See table 2 for HPLC mobile phase conditions. Both paclitaxel and the metabolite 6a-hydroxypaclitaxel were detected by its absorbance at 230 nm.
To investigate if estramustine and estromustine were able to inhibit CYP2C8 mediated enzyme activities, human CYP2C8 cDNA expressed microsomes were incubated with paclitaxel in the presence of either estramustine or estromustine.

[1] = CYP1A2, compound at 100 μM, control 100%
[2] = CYP2C9, compound at 100 μM, control 100%
[3] = CYP2D6, compound at 100 μM, control 100%
[4] = CYP3A4, compound at 100 μM, control 100%

Row | Compound | percentage of activity remaining in the presence of the compound (CYP1A2; CYP1A2, compound at 10 μM, control 100%) | percentage of activity remaining in the presence of the compound (CYP1A2; [1]) | percentage of activity remaining in the presence of the compound (CYP2C9; CYP2C9, compound at 10 μM, control 100%) | percentage of activity remaining in the presence of the compound (CYP2C9; [2]) | percentage of activity remaining in the presence of the compound (CYP2C19; CYP2C19, compound at 10 μM) | percentage of activity remaining in the presence of the compound (CYP2C19; CYP2C19, compound at 100 μM) | percentage of activity remaining in the presence of the compound (CYP2D6; CYP2D6, compound at 10 μM, control 100%) | percentage of activity remaining in the presence of the compound (CYP2D6; [3]) | percentage of activity remaining in the presence of the compound (CYP3A4; CYP3A4, compound at 10 μM, control 100%) | percentage of activity remaining in the presence of the compound (CYP3A4; [4]) | inhibition of 6α-hydroxylation of paclitaxel (CYP2C8; CYP2C8, compound at 100 μM, 40 min) | percentage of activity remaining in the presence of the compound (CYP1A2; CYP1A2, control 100%) | percentage of activity remaining in the presence of the compound (CYP2C9; CYP2C9, control 100%) | percentage of activity remaining in the presence of the compound (CYP2C19; CYP2C19, first estramustine column, head prints 100 μM) | percentage of activity remaining in the presence of the compound (CYP2D6; CYP2D6, control 100%) | percentage of activity remaining in the presence of the compound (CYP3A4; CYP3A4, control 100%) | inhibition at 90 min, 100 µM (CYP3A4; human) | inhibition at 40 min, 100 μM (CYP2C8; human, microsomes, pH 7.4, CYP2C8, compound at 100 μM)
1 | C[C@]12CC[C@@H]3c4ccc(OC(=O)N(CCCl)CCCl)cc4CC[C@H]3[C@@H]1CCC2=O [Estromustine, estromustine] | 85.0% | 68.4% | 92.5% | 86.9% | 90.6% | 81.0% | 64.1% | 76.9% | 43.2% | 33.1% | 20% | – | – | – | – | – | – | –
2 | C[C@]12CC[C@@H]3c4ccc(OC(=O)N(CCCl)CCCl)cc4CC[C@H]3[C@@H]1CC[C@@H]2O [Estramustine, estramustine] | – | 57.2% | – | 58.8% | – | 40.1% | – | 32.7% | – | 20.2% | – | 72.7% | 56.4% | 37.9% | 38.0% | 27.0% | ~80% | 40%
